Assay results: patent publication US20230340530A1, “Methods of Protecting RNA” (Pfizer Inc., priority 2020, published 2023)

Experiments:
[1] = system: random 30nt RNA oligonucleotide with a 5′ Cy5 fluorophore and a 3′ Biotin (SEQ ID NO: 9); assay: RNA Fluorescence Polarization (FP) protection assay; assay type: biochemical; details: 62.5 mM NaOH, 18 hours, dose response 600 µM top dose, n=2
Description: (§1) In the FP assay, fluorophores were added to the 3′ and 5′ end of a short RNA construct and incubated with a boron compound under accelerated degradation conditions (e.g., base and temperature). For intact RNA, the 2 fluorophores come together to produce fluorescence. When the RNA is cleaved, there is no fluorescence. […] The counter screen assay run for each boron compound was used as control.
The RNA FP protection assay used a random 30nt RNA oligonucleotide (oligo) with a 5′ Cy5 fluorophore and a 3′ Biotin of the following sequence: 5′-Cy5-
In the presence of excess streptavidin, the RNA oligo will bind to the streptavidin and rotational spin will decrease causing an increase in the mP value in a fluorescence polarization (FP) measurement. When the RNA backbone is hydrolyzed under base mediated hydrolysis with increasing pH the Cy5 fluorophore will be free to spin faster lowering the mP value in an FP measurement. Compounds that inhibit base mediated hydrolysis will prevent release of Cy5 and reduction in mP value. […]
With regard to the plots provided in FIGS. 2-7, the detection for this assay used the fluorescent polarization of the fluorescent dye used in the assay. When a fluorescent dye has a high mass the spin rate is low and when the fluorescence is measured using two polarizing filters one parallel and one perpendicular the amount of spin can be measured. The unit Polarization was measured as mili-Polarization (mP). A dye with high mass will have a high mP reading and low mass will have a low mP reading. Streptavidin was added to bind to the biotin-RNA-Cy5 oligo to achieve high mass and the high mP reading. […] When a boron compound dose provides 100% activity, the RNA is intact/protected and the mP value measured is high. […]
To all wells in a compound spotted assay ready plate (Coming #3820) were added 2.5 µL of a 2x Biotin-RNA-Cy5 (Genescript custom #SC1518) and Streptavidin (ThermoFisher#21135) made in nuclease free water, incubated for 20 minutes, 2.5 µL of 50 mM Tris pH 7.2 was added to the positive control wells, and 2.5 µL 125 mM NaOH was added to all other wells. […]

[2] = RNA FP protection counter screen assay; details: counter screen for false positives, n=2
Description: as §1

## NCc1cc(C(F)(F)F)ccc1Oc1ccc2c(c1)COB2O [PF-06967658, 5-(2-(aminomethyl)-4-(trifluoromethyl)phenoxy)be nzo[c][1,2]oxaborol-1 (3H)-ol]
[1]
  ability of the boron compound to protect RNA from being cleaved/degraded (percent activity, FP): RNA protective effect
[2]
  activity in the RNA FP protection counter screen: lack of activity

## CC1(C)OB(C2(B3OC(C)(C)C(C)(C)O3)CCCCC2)OC1(C)C [PF-07230998, 2,2′-(cyclohexane-1,1-diyl)bis(4,4,5,5-tetramethyl-1,3,2-dioxaborolane)]
[1]
  ability of the boron compound to protect RNA from being cleaved/degraded (percent activity, FP): RNA protective effect
[2]
  activity in the RNA FP protection counter screen: lack of activity

## CC1(C)OB(O)c2cc(C(=O)O)ccc21 [PF-06966741, 1-hydroxy-3,3-dimethyl-1,3-dihydrobenzo[c][1,2]oxabor ole-6-carboxylic acid]
[1]
  ability of the boron compound to protect RNA from being cleaved/degraded (percent activity, FP): RNA protective effect
[2]
  activity in the RNA FP protection counter screen: lack of activity
